# Test results as given in patent US5834462A, “Tricyclic heterocyclic sulfonamide and sulfonic ester derivatives” (Eisai Co., Ltd., priority 1993, dated 1998).
# Key:
# [1] = test system: KB cells (human nasopharyngeal cancer cells); assay: in vitro Antitumor test on KB cells (MTT); format: cell-based; settings: 72 h, 3 days incubation
# Method: in vitro Antitumor test on KB cells (human nasopharyngeal cancer cells)
# KB cells suspended in an RPMI1640 medium (mfd. by Nissui Seiyaku K. K.), which contained 10% of fetal calf serum, 100 U/mi of penicillin, 100 μg/ml of streptomycin, 5×10^-5 M of mercaptoethanol and 1 mM of sodium pyruvate, were inoculated in 1.25×10^3 portions (0.1 ml) into wells of a 96-well flat-bottomed microplate and then incubated in an incubator containing 5% of carbon dioxide at 37° C. for a day.
# A compound of the present invention was dissolved in dimethyl sulfoxide in a concentration of 20 mg/ml and diluted with a 10% fetal calf serum-RPMI1640 culture medium to a concentration of 100 μg/ml. By using this concentration as the highest level, threefold serial dilution was performed with a 10% fetal calf serum-RPMI1640 culture medium. Then it was added in 0.1 ml portions into the wells of the above-mentioned plate wherein the KB cells had been incubated followed by incubation in the incubator containing 5% of carbon dioxide at 37° C. for 3 days.
# After incubating, an MTT (3-(4,5-dimethylthiazol-2-yl)-2,5-diphenyltetrazolium bromide) solution (3.3 mg/ml) was added in 0.05 ml portions into the wells and the incubation was effected for additional 1 hour. After sucking off the supernatant from each well, the formazane thus formed was dissolved in 0.1 ml of dimethyl sulfoxide. Then the absorbance at 540 nm was measured with a microplate reader and employed as an indication of the vital cell count. In accordance with the following equation, the inhibitory ratio was calculated and the 50% inhibitory concentration (IC50) of the test compound was determined. [formula] T: absorbance of a well containing the test commpound. C: absorbance of a well containing no test compound.
# [2] = test system: M5076 (mouse reticulum cell sarcoma); assay: in vivo antitumor test on M5076 transplanted in BDF1 mice; settings: 50 mg/kg/day, intraperitoneal, 4 times every other day from 10th day
# From the text: in vivo antitumor test on M5076 (mouse reticulum cell sarcoma)
# 1×10^6 M5076 cells were subcutaneously transplanted into the lateral parts of BDF1 mice (aged 6 to 9 weeks, female). A compound of the present invention was suspended in physiological saline containing 3.5% of dimethyl sulfoxide and 6.5% of Tween 80 and a given amount of the obtained suspension was intraperitoneally administered to the animals 4 times from the 10th day after the transplantation once a day every other day. The control group comprised 10 to 12 animals, while the test group comprised 5 or 6 animals.
# On the 21st day after the transplantation, tumors were taken out and weighed. Then the tumor multiplication inhibitory ratio of each test group based on the control group was determined in accordance with the following equation. [formula] T: average tumor weight of the test group. C: average tumor weight of the control group.
structure (smiles),measurement,setting,value
"COc1ccc(S(=O)(=O)Nc2cccc3c2Nc2ccccc2S3)cc1 [Example 1, 4-Methoxy-N-(10H-phenothiazin-1-yl)benenesulfonamide]",IC50,[1],0.11 µg/mL
same,"Inhibitory ratio (tumor weight, 21st day)",[2],73%
same,Survival ratio on 21st day,[2],100%
